Laboratory results as given in paper PMC8549791, “Discovery of SARS-CoV-2 M^pro peptide inhibitors from modelling substrate and ligand binding” (Chemical Science, 2021).
“Also recorded” adds a separate entry of the source. Like-named read-outs stand apart in the source and are kept apart here. Ends that are not written are not given here.

Key:
SARS-CoV-2 M^pro [1] = target: T1, SARS-CoV-2 M^pro (Severe acute respiratory syndrome coronavirus 2, UniProt P0DTD1); conditions: cited from earlier work
SARS-CoV-2 M^pro [2] = target: T1, SARS-CoV-2 M^pro; assay: biochemical; assay type: biochemical; set-up: The main protease (M^pro) of SARS-CoV-2; made in house
SARS-CoV M^pro = conditions: cited from earlier work
SARS-CoV-2 M^pro [3] = target: T1, SARS-CoV-2 M^pro; conditions: pH 7.5
SARS-CoV-2 M^pro [4] = target: T1, SARS-CoV-2 M^pro
M^pro dimer = assay type: binding, SARS-CoV-2; conditions: pH 6.9
SARS-CoV-2 M^pro [5] = target: T1, SARS-CoV-2 M^pro; assay type: biochemical; set-up: The main protease (M^pro) of SARS-CoV-2; made in house; conditions: for depletion of s01 in presence of inhibitor: pH 6.9
SARS-CoV-2 M^pro [6] = target: T1, SARS-CoV-2 M^pro; assay type: biochemical; set-up: The main protease (M^pro) of SARS-CoV-2; made in house
SARS-CoV-2 M^pro [7] = target: T1, SARS-CoV-2 M^pro; assay: biochemical; set-up: The main protease (M^pro) of SARS-CoV-2; made in house; conditions: for Hill slope: pH 7.5

Row | Compound | mode of inhibition (in words) (SARS-CoV-2 M^pro [1]) | mode of inhibition (SARS-CoV-2 M^pro [2]) | turnover by SARS-CoV M^pro (in words) (SARS-CoV M^pro) | turnover / cleavage (in words) (SARS-CoV-2 M^pro [3]) | turnover (fast/medium/slow) (SARS-CoV-2 M^pro [4]) | substrate ion depletion after 1 min (SARS-CoV-2 M^pro [4]; pH 6.9) [%] | substrate ion depletion after 6 min (SARS-CoV-2 M^pro [4]; pH 6.9) [%] | complexes with M^pro dimer after 1 min (M^pro dimer) | M^pro dimer/s01-cleavage product complexes in presence of inhibitor (SARS-CoV-2 M^pro [5]) | depletion of s01 in presence of inhibitor (SARS-CoV-2 M^pro [5]) [%] | IC50 (SARS-CoV-2 M^pro [2]; IC50 at [S] = 2 µM) [µM] | IC50 (SARS-CoV-2 M^pro [2]; IC50 at [S] = 10 µM) [µM] | IC50 (SARS-CoV-2 M^pro [2]; IC50 at [S] = 20 µM) [µM] | IC50 (SARS-CoV-2 M^pro [2]; IC50 at [S] = 40 µM) [µM] | cleavage products by LCMS (SARS-CoV-2 M^pro [6]) | IC50 ratio R (SARS-CoV-2 M^pro [2]) | IC50 (SARS-CoV-2 M^pro [7]) [µM] | Hill slope (SARS-CoV-2 M^pro [7]) | substrate ion depletion after 12 min (SARS-CoV-2 M^pro [4]; pH 6.9) | relative catalytic efficiency with SARS-CoV M^pro (in words) (SARS-CoV M^pro)
1 | O=c1c2ccccc2[se]n1-c1ccccc1 [Ebselen] | reacts multiple times with M^pro; also recorded: complex mode of inhibition | did not support competitive inhibition | – | – | – | – | – | – | – | – | – | – | – | – | – | – | – | – | – | –
2 | FYPKLQ↓SSQAW [s11] | – | – | medium turnover | next preferred substrate for catalysis | fast | > 70 | > 90 | complexes of the M^pro dimer and the cleavage products were observed | – | – | – | – | – | – | – | – | – | – | – | –
3 | KYLTWQNSQIN-NH2 [p13] | – | competitive inhibition | – | – | – | – | – | – | the abundance of these complexes was lower than the abundance of M^pro/p13 complexes | 91 | 2.97 ± 0.21 | 4.28 ± 0.8 | 6.77 ± 0.46 | 18.1 ± 0.96 | not observed | – | – | – | – | –
4 | KYTFWQYSQFY-NH2 [p12] | – | competitive inhibition | – | – | – | – | – | – | – | 95 | 4.53 ± 0.9 | 4.99 ± 0.22 | 7.49 ± 0.04 | 16.3 ± 0.52 | not observed | 3.61 | 5.36 ± 2.17 | 1.25 ± 0.06 | – | –
5 | LTINWQKYFNT-NH2 [p15] | – | competitive inhibition | – | – | – | – | – | – | – | 70 | 8.26 ± 0.06 | 12 ± 0.34 | 18.83 ± 0.18 | 37.7 ± 2.02 | not observed | 4.56 | 5.31 ± 1.08 | 1.17 ± 0.16 | – | –
6 | REPMLQ↓SADAQ [s07] | – | – | slow turnover | Slow turnover | slow | – | – | only M^pro complexes with intact substrates were observed | – | – | – | – | – | – | – | – | – | – | below 50% | –
7 | SGVTFQ↓SAVKR [s02] | – | – | fast turnover | hydrolysed less efficiently than s11 | medium | – | > 70 | complexes of the M^pro dimer and the cleavage products were observed | – | – | – | – | – | – | – | – | – | – | > 90% | highest relative efficiencies
8 | WFTLKQYWQTN-NH2 [p16] | – | competitive inhibition | – | – | – | – | – | – | – | 78 | 4.79 ± 0.08 | 6.66 ± 0.41 | 10.4 ± 0.53 | 23.2 ± 0.42 | not observed | 4.85 | 3.76 ± 0.51 | 1.19 ± 0.16 | – | –
